Experimental data published in US11207461B2, “Drug delivery system and method for controlled and continuous delivery of drugs into the brain by bypassing the blood brain barrier” (priority 2015, dated 2021).

Experiments:
[1] = rabbit
Text: The device was surgically placed in a rabbit in the maxillary sinus region by removing the bone overlying the respiratory mucosa. The tip of the device was placed beneath the maxillary sinus lining mucosa in contact with the connective tissue side of the mucosa. […] FIG. 15 refers to the comparative brain values of dopamine using High Performance Liquid Chromatography, between the control and the rabbit in which dopamine was delivered in vivo in a continuous and controlled manner under the maxillary sinus mucosa using the drug delivery system. […] The drug delivery was stopped at the twentieth minute. […] FIG. 16 refers to blood values of dopamine in the rabbit after in vivo delivery of dopamine under the maxillary sinus mucosa using the device.

[2] = rabbit; blood samples before and at 10, 20 and 30 minutes after start of drug delivery; FIG. 18
Description: The device was placed into the maxillary sinus of a rabbit by perforating the maxillary sinus mucosa from the connective tissue side and placing the implant tip into the sinus cavity and above the epithelial layer. […] Whole body perfusion was done using a peristaltic pump with warm physiological saline for 20 minutes at a controlled rate. The perfused brain was then resected at the end one hour from the start of the procedure. Brain samples from different parts of the brain was analyzed using High Performance Liquid Chromatography. […] During the procedure, a blood sample was collected before drug delivery. Three blood samples were then collected at intervals of 10, 20 and 30 minutes respectively following start of drug delivery. The samples were analyzed using High Performance Liquid Chromatography.

Row | SMILES | blood value of dopamine (HPLC) after drug delivery was stopped ([1]; blood sample at 30 minutes, delivery stopped at the twentieth minute, FIG. 16) | blood values of dopamine (HPLC) during drug delivery ([1]; blood samples at 10 and 20 minutes after start of drug delivery, versus sample before delivery, FIG. 16) | drug in peripheral circulation during drug delivery ([1]; dopamine infused under maxillary sinus mucosa, during the 20 minute delivery) | brain concentration of dopamine (HPLC) compared with the normal ([1]; infused under maxillary sinus mucosa for twenty minutes at 1 milliliter per hour, perfused brain resected at one hour, samples from different parts of the brain, FIG. 15) | blood values of lignocaine (HPLC), drug in peripheral circulation [2]
1 | NCCc1ccc(O)c(O)c1 [Dopamine] | peaked again | dipped | no increase of the drug in peripheral circulation | increased concentration of dopamine in all parts of the brain except diencephalon | –
2 | CCN(CC)CC(=O)Nc1c(C)cccc1C [Lignocaine] | – | – | – | – | no drug in the peripheral circulation
